This note sets out measurements from ChEMBL document CHEMBL6071154, “A patent review of SCF E3 ligases inhibitors for cancer:Structural design, pharmacological activities and structure-activity relationship” (Eur J Med Chem, 2024).

Usually pIC50 stands for the negative decadic logarithm of the IC50, by convention in mol/L.

The test system of one test is LNCaP. Kind of test: Antiproliferative activity against human LNCAP cells assessed as reduction in cell viability incubated for 24 hrs by MTT assay. Background: Tetrazolium assays rely on reduction of a dye to a coloured formazan, in cell work by metabolically active cells.
A further test concerns HT-1080. Kind of test: Antiproliferative activity against human HT-1080 cells assessed as reduction in cell viability. The format is functional, cell-based.
Another test has as its system A549. The test is described as follows: Antiproliferative activity against human A549 cells assessed as reduction in cell growth. Type of test: functional, cell-based.
The nature of test [1]: Inhibition of NF-kappaB (unknown origin). More on the design: species or system Homo sapiens.
The next test has as its system DU-145. The test is described as follows: Antiproliferative activity against human DU-145 cells assessed as reduction in cell viability incubated for 48 hrs by CCK8 assay. The note with it: DU-145, 48 h. The format is functional, cell-based.
For another test, the system named is PC-3. The test is described as follows: Antitumor activity against human PC-3 cells xenografted in mouse assessed as tumor growth inhibition at 10 mg/kg, po administered once daily relative to control. The format is functional. More on the design: scale not given: the % may be the effect or the level left. (A xenograft is tissue or cells of one species grown in another, often human tumour cells in immunodeficient mice.)

Test [2] concerns the target S-phase kinase-associated protein 2 (Homo sapiens, UniProt Q13309). Kind of test: Inhibition of SKP2 (unknown origin).
In a further test the test system is NCI-H358. The test is described as follows: Antiproliferative activity against human NCI-H358 cells assessed as reduction in cell growth incubated for 72 hrs by CCK-8 assay. The format is functional, cell-based. The settings on record: NCI-H358, 72 h.
The subject of another test is NCI-H2170. The test is described as follows: Antiproliferative activity against human NCI-H2170 cells assessed as reduction in cell growth incubated for 72 hrs by CCK-8 assay. The format is functional, cell-based. The note with it: NCI-H2170, 72 h.
For the next test, the system named is HGC-27. The test is described as follows: Antiproliferative activity against human HGC-27 cells assessed as reduction in cell growth incubated for 24 hrs by CCK-8 assay. Type of test: functional, cell-based. The settings on record: HGC-27, 24 h.

pIC50: −log10 of the molar value.

S-phase kinase-associated protein 2, sequence (Q13309 whole entry): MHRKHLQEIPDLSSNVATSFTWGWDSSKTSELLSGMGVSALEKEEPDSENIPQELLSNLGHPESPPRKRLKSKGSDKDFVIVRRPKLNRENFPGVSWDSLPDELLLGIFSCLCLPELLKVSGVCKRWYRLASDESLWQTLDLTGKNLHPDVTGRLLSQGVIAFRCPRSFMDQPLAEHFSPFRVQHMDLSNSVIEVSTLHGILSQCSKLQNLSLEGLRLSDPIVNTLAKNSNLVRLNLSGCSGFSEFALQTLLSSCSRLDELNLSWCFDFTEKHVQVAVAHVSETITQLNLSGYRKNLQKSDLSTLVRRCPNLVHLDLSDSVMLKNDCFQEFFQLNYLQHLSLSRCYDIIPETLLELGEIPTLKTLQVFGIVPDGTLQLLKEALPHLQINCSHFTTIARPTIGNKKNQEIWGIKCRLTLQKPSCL

As to `O=C(OCn1ncc(Cl)c(Cl)c1=O)c1cccc(C(F)(F)F)c1`, the pIC50 in the test with LNCaP is 5.77.

In the case of `Cc1ccc(S(=O)(=O)Nc2cc(Oc3cc(F)cc(F)c3)cc3cccnc23)cc1`, the pIC50 with HT-1080 was 7.10; in the test with A549, 5.39.

As to `COc1ccc(Oc2cc(NS(=O)(=O)c3ccc(C)cc3)c3ncccc3c2)cc1`, the figures for the pIC50 in the test on HT-1080 and in the test with A549 were 6.13 and 5.39, respectively.

Regarding `Cc1ccc(S(=O)(=O)Nc2cc(Oc3cccc(C#N)c3)cc3cccnc23)cc1`, the pIC50 is 5.17 in the test on HT-1080 and 5.19 in the test with A549.

The compound `O=C(O)c1ccc(N2N=C(Cc3ccccc3)/C(=C\c3ccc(-c4ccccc4F)o3)C2=O)cc1` gave a pIC50 in test [1] of 5.28.

On to `C/C=C/C(=O)c1c(OC)cc(=O)oc1C`, for which the pIC50 in the test with DU-145 is 4.71.

`O=C(CCl)NC1CCN(c2cnc(-c3ccccc3)c(-c3ccccc3)n2)CC1`: the Activity with PC-3 turned out to be 55.68%. Also, the pIC50 in test [2] is 5.56.

`CC(C)(C)c1cc2cc(NC(=O)c3cccs3)ccc2[nH]1`: the negative-log IC50 (pIC50) in the test on LNCaP was 5.33.

Turning to `O=C(Nc1cc(F)cc(F)c1)Nc1cccc(COc2ccc(Cl)cc2Cl)c1`, the pIC50 in the test with NCI-H358 was 5.19; with NCI-H2170 it was 5.26.

Take `O=C(Nc1cc(F)cc(F)c1)Nc1cccc(COc2ncc(Cl)cn2)c1`: the pIC50 was 5.23 in the test on NCI-H358 and 5.25 with NCI-H2170.

`N#Cc1ccc(OCc2cccc(NC(=O)Nc3cc(F)cc(F)c3)c2)cc1`: the pIC50 with NCI-H358 is 5.24; with NCI-H2170, 5.39.

As for `O=C(Nc1cc(F)cc(F)c1)Nc1cccc(CNc2ccc(Cl)cc2)c1`, the pIC50 with NCI-H358 is 5.16; with NCI-H2170, 5.14.

As for `CCCCc1ccc(NC(C)=O)c(C)c1`, the pIC50 in the test with LNCaP is 5.96.

As to `CC(Oc1ccc(C#N)cc1)c1cccc(NC(=O)Nc2cc(F)cc(F)c2)c1` (configuration not stated), the pIC50 in the test on NCI-H358 was 5.33; with NCI-H2170, 5.35.

`CS(=O)(=O)c1ccc(CCC(=O)Nc2ccccn2)cc1`: the pIC50 with LNCaP is 5.45.

With `COc1cc(C)ccc1-c1nc(C)c(NC(=O)OCc2ccc3c(c2)nc2n3CCOC2)s1`, in the test with HT-1080, the negative logarithm of the IC50 (pIC50) was 8.76.

On to `CCn1nnc2cc(COC(=O)Nc3sc(-c4ccc(C)cc4OC)nc3C)ccc21`, for which the pIC50 in the test on HT-1080 is 8.79.

Turning to `O=C(Nc1cc(F)cc(F)c1)Nc1cccc(COc2ccccc2Cl)c1`, the pIC50 in the test with NCI-H358 was 5.09; in the test on NCI-H2170, 5.10.

`O=C(Nc1cc(F)cc(F)c1)Nc1cccc(COc2ccc(Cl)cc2)c1`: the pIC50 in the test on NCI-H358 was 5.10; in the test with NCI-H2170 it was 5.50.

Take `CCOc1nc2cccc(C(=O)OCc3oc(=O)oc3C)c2n1Cc1ccc(-c2ccccc2-c2noc(=O)[nH]2)cc1` [AZILSARTAN MEDOXOMIL]: the pIC50 in the test on HGC-27 is 6.40; with DU-145, 4.30.
